Literature values in patent publication US12471592B2, “Cytoprotective compositions for short-term cells storage and transportation without cryopreservation and deep freezing” (priority 2021, dated 2025).
Read-outs that look alike come from different tables or passages of the source.

Tests used:
mouse blastocysts = conditions: for blastocysts survived: 20% vol/vol CPAs for 40 min at room temperature; for blastocysts subsequently developed: 30% vol/vol CPAs for 10 min at room temperature
[1] = system: vascular endothelial cells; conditions: vitrifying concentrations, 2-4° C. for 9 min
[2] = system: vascular endothelial cells; conditions: for increase of permeability: raising the temperature from 2-4° C. to 22° C.; for Permeability: vascular endothelial cells, 2-4° C.
endothelial cells = conditions: reducing concentration from 3.0 M to 2.0 M
mouse morula = conditions: for minimum concentration giving significant reduction of mouse morula survival: 5 min of 25° C. exposure
bacteria = conditions: 33% DMSO for 10 min
fibroblasts = conditions: 1% DMSO, within 5 sec
Rat retina cells = conditions: 24 hr exposure
[3] = system: Chinese hamster ovary cell lines
mouse oocytes = conditions: increasing molarity
[4] = system: ARPE 19 human retinal pigment epithelial cell line
[5] = cytochrome P450 oxidation system added

| SMILES | blastocysts survived (mouse blastocysts) [%] | cell survival [1] [%] | increase of permeability [2] | Permeability [2] [cm/sec×10^−6] | blastocysts subsequently developed (mouse blastocysts) [%] | minimum concentration giving significant reduction of mouse morula survival (mouse morula) [M] | chromosome damage ([3]; without oxidation system) | other results |
| --- | --- | --- | --- | --- | --- | --- | --- | --- |
| CC(O)CCO (stereo not drawn) [1,3-butanediol] | 64.2 | – | – | – | – | – | – | – |
| CC(O)C(C)O (stereo not drawn) [BD, 2,3-butanediol] | 8.3 | 76.3 | 17 fold | 4.1 | 8.7 | – | – | factor by which endothelial cell loss was cut (endothelial cells): 35 |
| C[S+](C)[O-] [DMSO, dimethylsulfoxide] | 96.7 | 37.0 | 17 fold | 2.4 | 25.0 | 5 | No chromosome damage | factor by which endothelial cell loss was cut (endothelial cells): 3; increase in mutagenicity (bacteria): 10 fold; increase of intracellular calcium (fibroblasts): two- to six-fold; concentration at which apoptosis was exhibited (Rat retina cells): ≥ 0.1 % vol/vol; concentrations giving dose-dependent reduction in rat heart rate (rat heart rate): above 0.14 M; concentration giving irreversible ultrastructural alterations to rat myocardium (rat myocardium; at 15° C.): above 2.82 M; concentration giving irreversible ultrastructural alterations to rat myocardium (rat myocardium; at 30° C.): above 1.41 M; chromosome damage [3, 5]: not |
| OCCO [EG, ethylene glycol] | 95.8 | 33.2 | nine-fold | 2.0 | 74.6 | 7 | No chromosome damage | chromosome damage [3, 5]: substantial chromosome damage |
| OCC(O)CO [GLY, glycerol] | 81.7 | – | – | – | – | 6 | – | – |
| CO [METH, methanol] | – | – | – | – | – | – | – | concentration showing reduced mouse morula survival (mouse morula; 10 min exposure): 6 M; concentrations resulting in protein damage or proteolysis (fish oocytes): above 6 M |
| CC(O)CO (stereo not drawn) [PG, propylene glycol] | 87.5 | 63.6 | 13 fold | 3.0 | 2.1 | 4 | substantial chromosome damage | formaldehyde increase relative to DMSO or GLY (mouse oocytes): more than 30 fold; concentration impairing the developmental potential of mouse zygotes by decreasing intracellular pH (mouse zygotes): > 2.5 M |
| O=c1c(O)c(-c2ccc(O)c(O)c2)oc2cc(O)cc(O)c12 [quercetin] | – | – | – | – | – | – | – | level of ROS ([4]; compared with the control groups, 300 μM H2O2): decreased; cell viability ([4]; pretreated with quercetin (0.80 μM) before exposure to 300 μM H2O2): preserved in quercetin group in a dose dependent manner, particularly at 20 μM |
